PMC9138994 (Biomolecules, 2022)
Marks after values point to notes of the source that are not given here.

Tests used:
H3R = test system: H3R; design: method as in earlier work; conditions: ref 19 (Vanover et al.); cited from earlier work
[1] = molecular target: T1, human serotonin 5-HT2A receptor (Homo sapiens, UniProt P28223); test: Radioligand displacement assay at 5-HT2A ([3H]-ketanserin, CHO-K1 cells); assay type: binding; conditions: CHO-K1 cells expressing human 5-HT2A, read-out: Ki ± SD (n), 5-HT2A
T1 construct: host or cells: CHO-K1
T1 sequence (P28223 whole entry): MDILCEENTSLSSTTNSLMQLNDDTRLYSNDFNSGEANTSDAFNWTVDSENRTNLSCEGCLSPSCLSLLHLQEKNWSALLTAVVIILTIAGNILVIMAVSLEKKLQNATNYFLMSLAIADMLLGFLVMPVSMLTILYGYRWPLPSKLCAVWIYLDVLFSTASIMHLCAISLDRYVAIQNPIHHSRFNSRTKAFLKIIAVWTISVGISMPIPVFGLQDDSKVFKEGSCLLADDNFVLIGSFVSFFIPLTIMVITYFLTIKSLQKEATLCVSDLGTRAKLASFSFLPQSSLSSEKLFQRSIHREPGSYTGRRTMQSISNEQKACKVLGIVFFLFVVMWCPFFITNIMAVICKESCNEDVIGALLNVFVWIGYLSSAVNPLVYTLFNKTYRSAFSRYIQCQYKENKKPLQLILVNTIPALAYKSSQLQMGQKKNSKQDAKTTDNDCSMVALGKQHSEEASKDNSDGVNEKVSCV

| SMILES | inhibition at 10 µM, H3R (H3R) | Ki [1] |
| --- | --- | --- |
| CC(C)COc1ccc(CNC(=O)N(Cc2ccc(F)cc2)C2CCN(C)CC2)cc1 [Pimavanserin, reference compound] | inhibition at 10 µM: <50% ^a | – |
| CN1CCC(N(Cc2ccc(F)cc2)C(=O)NCc2ccc(OCCCN3CCCCC3)cc2)CC1 [ST-2300, 1-(4-Fluorobenzyl)-1-(1-methylpiperidin-4-yl)-3-{4-[3-(piperidin-1-yl)propoxy]benzyl}urea] | – | 1.3 ± 0.331 µM |
